Where two headings read alike, the source gives them in different places.
What was measured:
[1] = test system: K562; experiment: Growth of human erythroid cell line K562; format: cell-based; conditions: for growth of K562: over 3 days
Method: Such activities might limit their utility for treatment of anemias such as occur in thalassemia, but alternatively would be useful for anticancer effects. […]
(§1) Cell viability analyses were performed using fluorescent staining to detect living cells. Cells were in log phase of growth in 6-well dishes when used in proliferation assays. For enumeration of living cells, wells were washed once with medium to remove nonadherent or dead cells. Remaining live cells were labeled with Calcein-AM for 20 minutes at 37° C. and washed once. Fluorescence intensity of adherent live cells was read on a CytoFluor 2300 Fluorescence Plate Scanner (Millipore; Bedford, Mass.) at excitation and emission wavelengths of 485 and 530 nm, respectively. The fluorescence intensity of a well was proportional to the number of living cells in the well. Background fluorescence was measured separately for each plate and subtracted from all readings. Each experiment was performed in triplicate or quadruplicate. The standard deviation (SD) of repetitive readings was less than 30% of the mean.
At higher concentrations, still easily achievable in vivo, arginine butyrate (0.5 mM) and dihydrocinnamic acid (greater than 0.5 mM) inhibited growth of this tumor cell line by approximately 50%. Therefore, these compounds are also useful as anti-tumor agents.

[2] = test system: erythroid cells (peripheral blood); experiment: Erythroid cell viability by fluorescent staining (Calcein-AM), FIG. 2; format: cell-based, human; conditions: vs untreated controls
Method: FIG. 2 Peripheral blood cell viability after incubation with arginine butyrate, dihydrocinnamic acid, phenoxyacetic acid and butyric acid ethyl ester.
as §1, with “Compositions were tested for the ability to directly stimulate erythroid cell growth. Cell growth stimulation is a useful property for an agent to be used to treat anemias and distinguishes such agents from the cytotoxic drugs currently being tested for treatment of hemoglobinopathies. Cell viability” for “Cell viability”, “labeled with 2 μM 2',7'-bis-(carboxyethyl)-5-(and 6)-carboxy-fluorescein acetoxy-methyl ester (Calcein-AM) (Molecular Probes; Eugene, Oreg.) for 20” for “labeled with Calcein-AM for 20”, “intensity of live cells” for “intensity of adherent live cells”, “the mean. Results are depicted in FIG. 2.” for “the mean.”

[3] = test system: human erythroid cells; experiment: DNA fragmentation by flow cytometry (degradation of DNA); format: cell-based; conditions: for Degraded DNA: 4 days, control 26%, 22%; for proportion of degraded DNA: 1.0 mM to 2.0 mM, untreated 26%; for DNA fragmentation / cell viability / DNA integrity: DNA fragmentation assays
Method: Such activities might limit their utility for treatment of anemias such as occur in thalassemia, but alternatively would be useful for anticancer effects. To determine cell viability, human erythroid cells were cultured in the presence and absence of these compounds for 4 days and the amount of DNA fragmentation which occurred was measured.
Flow cytometric determination of DNA profiles and DNA fragmentation were determined. Cytometric analysis was performed with a FACScan (Becton Dickenson Instruments; Columbia, Md.). The data analysis and display were performed using the Cell-Fit software program. Approximately 0.5×10^6 cells were washed twice with PBS and resuspended in 1 ml of 1% sodium citrate, 0.1% Triton X-100 and 50 μg of propidium iodide/ml. Resulting permeabilized cells were kept in the dark at 4° C. overnight before DNA profile or DNA fragmentation analysis (Table 4).

[4] = test system: fetal globin mRNA (human erythroleukemia cells); experiment: Fetal globin mRNA in erythroleukemia cells (primer extension); format: cell-based; conditions: for Gamma/Alpha: untreated 0.46; for activation at 1000 µM: Homo sapiens, 96 h, read-out: Gamma Globin mRNA (increase)
Method: Compounds were tested for increased expression of the human globin genes in human erythroid cells. In addition, as the cell line being tested is a tumor cell line, the assay determines if differentiation, a growth inhibitory effect on cancer cells, is induced by the compounds tested. Human erythroleukemia cells were cultured in RPMI media with 10% fetal calf serum alone or with treatment with various compounds for 4 days. Globin MRNA was quantitated by primer extension analysis. Fetal globin mRNA was compared to the amount of fetal globin mRNA produced in untreated cells during the same culture period. The quantitation was expressed as a percent of alpha globin MRNA which was constant. Results are expressed proportional to α-globin mRNA (Table 3).

[5] = test system: K562 cells; experiment: Dose response of cell growth, trypan blue exclusion (FIG. 3); format: cell-based, human; conditions: day 4
Method: FIG. 3 Cell viability as determined by the comparative numbers of total and viable K562 cells in the presence of increasing concentrations of (A) phenoxyacetic acid, (B) dihydrocinnamic acid, (C) butyric acid ethyl ester, (D) arginine butyrate, and (E) isobutyramide.
Dose response curves at dosages of up to 2.0 mM were also determined for phenoxyacetic acid (PAA; FIG. 3A), dihydrocinnamic acid (DHC; FIG. 3B), butyric acid ethyl ester (BAEE; FIG. 3C), arginine butyrate (AB; FIG. 3D) and isobutyramide (IBT; FIG. 3E). Cells were counted on day 4 of treatment and viable cells identified by trypan blue exclusion.

[6] = test system: system A transport (K562 cells and nucleated erythroblasts from fetal liver); experiment: Effects on system A amino acid transport (3H-MAIB uptake); format: cell-based, human
Method: Inhibition of nutrient uptake is undesirable for treatment of anemias. Methyl aminoisobutyric acid (MAIB) labeled with tritium (^3 H) is normally taken up by system A amino acid transport. Cold (unlabeled) compounds were added to cultures containing ^3 H-MAIB and incubated for 1 hour. Cells were harvested and the amount of ^3 H taken up by cells was quantitated by scintillation counting.

SMILES	growth of K562 ([1]; 0.2 mM)	inhibition at 500 µM ([1]; Homo sapiens, K562, 0.5 mM)	erythroid cell growth and proliferation ([2]; 0.2 mM)	erythroid cell growth and proliferation ([2]; 0.5 mM)	Degraded DNA ([3]; 0.5 mM)	proportion of degraded DNA [3]	Degraded DNA ([3]; 1.0 mM)	Degraded DNA ([3]; 2.0 mM)	DNA fragmentation / cell viability / DNA integrity [3]	induction of fetal globin mRNA [4]	Gamma/Alpha ([4]; 1.0 mM, 4 days)	activation at 1000 µM ([4]; 1.0 mM, 4 days)	cell growth ([5]; concentrations above 0.2 mM)	system A (neutral) amino acid transport [6]	growth of K562 ([1]; 0.5 mM)	activation at 1000 µM [4]	proliferation ([5]; up to 2.0 mM)	system A (neutral) amino acid transport ([6]; 1 hour, 3H-MAIB (FIG. 12), listed as phenoxy acetic acid)	system A (neutral) amino acid transport ([6]; 1 hour, 3H-MAIB (FIG. 12), listed as phenoxyacetic acid)
CCCC(=O)O [AB, arginine butyrate]	either did not inhibit, or slightly enhanced growth	~50%	inhibited proliferation	inhibited proliferation	32%	44%	34%	44%	decrease cell viability	significantly increased the induction of fetal globin MRNA	0.66	20%	suppressed cell growth	inhibited the neutral amino acid transport mechanism	–	–	–	–	–
O=C(O)COc1ccccc1 [PAA, Phenoxyacetic acid]	–	–	–	either had no effect or stimulated erythroid cell growth and proliferation	–	20.6%	–	20.6%	reduce DNA fragmentation	significantly increased the induction of fetal globin MRNA	0.70	–	–	–	either did not inhibit, or slightly enhanced growth	24%	did not significantly inhibit proliferation	caused no significant inhibition and actually increased uptake of nutrients into cells	do not significantly alter system A transport of amino acids

Source: US6011000A, “Compositions for the treatment of blood disorders” (priority 1995, dated 2000)
